The source of these data is patent US20050050594A1, “Tryptophan synthase as a site of herbicide action” (priority 1999, published 2005).

In one test the test system is TSβ (Spinacea enzyme). The experiment in a line: TSβ assay with partially purified spinach enzyme. Also noted: key: the increase in the number of “+” corresponds to the increase of inhibition; +++++: the increase in the number of “+” corresponds to the increase of inhibition; +++++++: the increase in the number of “+” corresponds to the increase of inhibition. It is filed as biochemical, Spinacea oleracea. Conditions: determined qualitatively. The protocol: The assay was conducted in microfuge tubes by the TSβ reaction (indole+L-serine→L-tryptophan+H2O). 100 μL of extract was mixed with 150 μL of 0.4 mM indole, 80 mM serine, 0.03 mM PLP, 0.1 M Tris-Cl buffer pH 7.8, containing 7.5 μL of saturated NaCl. The mixture was incubated at 21° C. for increasing time intervals, from 10 min to several hours. The reaction was terminated by adding 25 μL 1 N NaOH, then 1 mL toluene with mixing, and then centifuging in a microfuge 2 min at 10,000×G to partition remaining indole into the toluene phase and away from the enzyme. Remaining indole was subsequently partitioned into the indole reagent phase and reacted with dimethylaminobenzaldehyde: 500 μL of the toluene layer from the microfuge tubes was mixed with 1 ml of the indole reagent in another tube and allowed to separate for 20 min, then the lower layer was carefully pipetted into a cuvette and its absorbance measured at 540 nm. This part of the assay was conducted as known in the art.
A unique microtiter plate method was also developed to streamline the partitioning steps and data collection. First, the TSβ reaction was performed as above in microfuge tubes. […] The plate was covered by a mylar sheet (to protect the plate reader and avoid evaporation) and absorbance was monitored on the plate reader at 535 nm. […]
TS was partially purified from spinach for use in the TSβ assay. The greatest degree of purification was achieved by homogenizing the tissue, preparing the 30-50% ammonium sulfate fraction and freezing it, thawing it, and applying the dissolved precipitate to an FPLC column (Waters SW300, Waters Corporation, Franklin, Mass.) to separate the TS activity (measured as TSβ) from the bulk of the protein. […] Because of the low yield of the assay of partially purified plant TS, endogenous enzyme was measured in crude extracts or in enzyme preparations involving one or two purification steps. […]

The next test relates to Arabidopsis thaliana. The experiment in a line: Herbicidal activity and tryptophan reversal on Arabidopsis grown on agar medium. Details: key: 0 - no effect; 9 - total kill; C - chlorotic seedlings 4-6 days after treatment. It is filed as in vivo. As to the method:
In this experiment, TS inhibitors were tested on Arabidopsis thaliana grown Murashige minimal organics medium, (obtained from Life Technologies, Grand Island, N.Y.), containing 0.7% agar. Compounds were tested at different concentrations to assess their herbicidal activity.

Turning to `O=P(O)(O)CCCCSc1ccccc1O` [Compound 22, {4-[(o-hydroxyphenyl)thio]butyl}-phosphonic acid], the “TSβ (Spinacea enzyme), relative activity” value in the test with TSβ (Spinacea enzyme) was “+”. Moreover, the herbicidal injury rating worked out at 0 in the test with Arabidopsis thaliana (herbicide 7.8 μM); 1 in the test on Arabidopsis thaliana (herbicide 16 μM); 1C in the test with Arabidopsis thaliana (herbicide 31 μM); 3C in the test on Arabidopsis thaliana (herbicide 63 μM); 3C in the test on Arabidopsis thaliana (herbicide 125 μM); 3C with Arabidopsis thaliana (herbicide 250 μM). Also, the herbicidal injury rating with Arabidopsis thaliana (herbicide 500 μM) amounted to 5C; in the test with Arabidopsis thaliana (herbicide 1000 μM) it was 6C. Also, the herbicidal rating in the test with Arabidopsis thaliana (herbicide 7.8 mM, no Trp) turned out to be 5; in the test with Arabidopsis thaliana (herbicide 16 mM, no Trp), 5; in the test on Arabidopsis thaliana (herbicide 31 mM + 100 μM Trp), 0; in the test with Arabidopsis thaliana (herbicide 31 mM, no Trp), 6; in the test with Arabidopsis thaliana (herbicide 63 mM + 100 μM Trp), 1; with Arabidopsis thaliana (herbicide 63 mM, no Trp) it was 6. Moreover, the herbicidal rating in the test on Arabidopsis thaliana (herbicide 125 mM + 100 μM Trp) was 3; in the test on Arabidopsis thaliana (herbicide 125 mM, no Trp), 6; in the test on Arabidopsis thaliana (herbicide 250 mM + 100 μM Trp), 5; with Arabidopsis thaliana (herbicide 250 mM, no Trp), 6; with Arabidopsis thaliana (herbicide 500 mM + 100 μM Trp), 3; with Arabidopsis thaliana (herbicide 500 mM, no Trp), 6. In addition, the herbicidal rating was determined as 3 with Arabidopsis thaliana (herbicide 1000 mM + 100 μM Trp) and 7 with Arabidopsis thaliana (herbicide 1000 mM, no Trp).
